Results taken from patent US10266526B2, “Substituted 1,2,3-triazoles as SMYD inhibitors for treating cancer” (EPIZYME, INC., priority 2014, dated 2019).

Each compound was assayed against SMYD3 (Homo sapiens (Human), UniProt Q9H7B4) (assay: SMYD3 biochemical assay (SMYD3 enzyme assay on MEKK2 protein substrate, 3H-SAM scintillation proximity assay)). Conditions: Table 1A; average of n = 1 to n = 50; read-out: SMYD3 Biochem IC50.
Outline: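 Native full-length human SMYD3, expressed in E. coli, was preincubated with compound for 30 min at room temperature in 25 mM Tris-Cl pH 8.0, 1 mM TCEP, 0.005% BSG and 0.005% Tween 20. ³H-SAM plus GST-MEKK2 then started the reaction. It was stopped with unlabeled SAM (100 uM final), and methylated MEKK2 was read by SPA.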

SMYD3, sequence (Q9H7B4 whole entry): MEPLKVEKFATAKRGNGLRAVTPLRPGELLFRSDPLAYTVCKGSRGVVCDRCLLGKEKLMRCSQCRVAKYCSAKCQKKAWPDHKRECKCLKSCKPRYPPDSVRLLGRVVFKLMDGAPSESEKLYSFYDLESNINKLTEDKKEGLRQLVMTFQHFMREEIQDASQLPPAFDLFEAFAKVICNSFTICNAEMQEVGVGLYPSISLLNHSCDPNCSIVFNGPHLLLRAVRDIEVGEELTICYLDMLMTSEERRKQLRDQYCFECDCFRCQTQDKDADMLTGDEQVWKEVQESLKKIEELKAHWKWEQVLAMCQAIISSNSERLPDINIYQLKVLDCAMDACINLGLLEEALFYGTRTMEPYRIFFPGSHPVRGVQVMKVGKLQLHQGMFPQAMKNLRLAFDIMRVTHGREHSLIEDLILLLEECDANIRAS

Structure (SMILES)	IC50 [µM]
NCCC(=O)N1CCC(NC(=O)c2nnc[nH]2)CC1 [compound 556, N-(1-(3-aminopropanoyl)piperidin-4-yl)-4H-1,2,4-triazole-3-carboxamide]	> 50
Cc1c[nH]c(C(=O)N[C@H]2CC[C@H](N)CC2)n1 [compound 562, N-((1r,4r)-4-aminocyclohexyl)-4-methyl-1H-imidazole-2-carboxamide]	> 10
Cc1nnc(C(=O)N[C@H]2CC[C@H](NC(=O)CCN)CC2)[nH]1 [compound 543, N-((1r,4r)-4-(3-aminopropanamido)cyclohexyl)-5-methyl-4H-1,2,4-triazole-3-carboxamide]	> 50
CC(NC(=O)c1n[nH]c(=O)[nH]1)C1CCN(C(=O)[C@H](C)N)CC1 (stereo partly drawn) [compound 546, N-(1-(1-(L-alanyl)piperidin-4-yl)ethyl)-5-oxo-4,5-dihydro-1H-1,2,4-triazole-3-carboxamide]	9.76

Same assay, conditions: read-out: SMYD3 Biochem IC50

Structure (SMILES)	IC50 [µM]
COc1cccc2[nH]cc(C(=O)N[C@H]3CC[C@H](NC(=O)CCN)CC3)c12 [compound 371, N-((1r,4r)-4-(3-aminopropanamido)cyclohexyl)-4-methoxy-1H-indole-3-carboxamide]	> 100
Cc1cccc(Cn2nc(C(C)(C)C)cc2C(=O)N[C@H]2CC[C@H](N)CC2)c1 [compound 341, N-((1r,4r)-4-aminocyclohexyl)-3-(tert-butyl)-1-(3-methylbenzyl)-1H-pyrazole-5-carboxamide]	> 100
Cc1nscc1C(=O)N[C@H]1CC[C@H](NC(=O)CCN)CC1 [compound 347, N-((1r,4r)-4-(3-aminopropanamido)cyclohexyl)-3-methylisothiazole-4-carboxamide]	> 100
CC(NC(=O)[C@H]1Cc2ccccc2CN1)C1CCN(C(=O)[C@H](C)N)CC1 (stereo partly drawn) [compound 306, (3R)-N-(1-(1-(L-alanyl)piperidin-4-yl)ethyl)-1,2,3,4-tetrahydroisoquinoline-3-carboxamide]	48.1
CC(NC(=O)c1cccc(N)n1)C1CCN(C(=O)[C@H](C)N)CC1 (stereo partly drawn) [compound 418, N-(1-(1-(L-alanyl)piperidin-4-yl)ethyl)-6-aminopicolinamide]	> 100
CC(NC(=O)c1cncc(O)c1)C1CCN(C(=O)[C@H](C)N)CC1 (stereo partly drawn) [compound 513, N-(1-(1-(L-alanyl)piperidin-4-yl)ethyl)-5-hydroxynicotinamide]	> 50
N[C@H]1CC[C@H](NC(=O)Cc2ccc(F)cc2)CC1 [compound 208, N-((1r,4r)-4-aminocyclohexyl)-2-(4-fluorophenyl)acetamide]	> 100
NCCC(=O)N[C@H]1CC[C@H](NC(=O)c2cccnc2O)CC1 [compound 410, N-((1r,4r)-4-(3-aminopropanamido)cyclohexyl)-2-hydroxynicotinamide]	44.5
NCCC(=O)N[C@H]1CC[C@H](NC(=O)c2cc[n+]([O-])cc2)CC1 [compound 264, 4-(((1r,4r)-4-(3-aminopropanamido)cyclohexyl)carbamoyl)pyridine 1-oxide]	> 100
NCCC(=O)N[C@H]1CC[C@H](NC(=O)c2ccc(Cl)cc2C(F)(F)F)CC1 [compound 439, N-((1r,4r)-4-(3-aminopropanamido)cyclohexyl)-4-chloro-2-(trifluoromethyl)benzamide]	> 100
N[C@H]1CC[C@H](NC(=O)c2ccc3c(c2)OC(F)(F)O3)CC1 [compound 285, N-((1r,4r)-4-aminocyclohexyl)-2,2-difluorobenzo[d][1,3]dioxole-5-carboxamide]	69.1
COc1cc(C(=O)N[C@H]2CC[C@H](N)CC2)c2ccccc2n1 [compound 223, N-((1r,4r)-4-aminocyclohexyl)-2-methoxyquinoline-4-carboxamide]	> 100
Cc1c(C(=O)N[C@H]2CC[C@H](N)CC2)nnn1-c1ccccc1 [compound 273, N-((1r,4r)-4-aminocyclohexyl)-5-methyl-1-phenyl-1H-1,2,3-triazole-4-carboxamide]	> 100
Cc1nscc1C(=O)N[C@H]1CC[C@H](N)CC1 [compound 348, N-((1r,4r)-4-aminocyclohexyl)-3-methylisothiazole-4-carboxamide]	> 100
N[C@H]1CC[C@H](NC(=O)c2cc3cn[nH]c3cn2)CC1 [compound 497, N-((1r,4r)-4-aminocyclohexyl)-1H-pyrazolo[3,4-c]pyridine-5-carboxamide]	35.7
N[C@H]1CC[C@H](NC(=O)c2ncccn2)CC1 [compound 269, N-((1r,4r)-4-aminocyclohexyl)pyrimidine-2-carboxamide]	> 100
Nc1n[nH]c(C(=O)N[C@H]2CC[C@H](N)CC2)n1 [compound 508, 3-amino-N-((1r,4r)-4-aminocyclohexyl)-1H-1,2,4-triazole-5-carboxamide]	> 50
COc1cccc2[nH]cc(C(=O)NC(C)C3CCN(C(=O)[C@H](C)N)CC3)c12 (stereo partly drawn) [compound 370, N-(1-(1-(L-alanyl)piperidin-4-yl)ethyl)-4-methoxy-1H-indole-3-carboxamide]	> 100
N[C@H]1CC[C@H](NC(=O)c2ccc(O)nc2)CC1 [compound 295, N-((1r,4r)-4-aminocyclohexyl)-6-hydroxynicotinamide]	> 100
CC(NC(=O)c1ccnn1C)C1CCN(C(=O)[C@H](C)N)CC1 (stereo partly drawn) [compound 413, N-(l-(1-(L-alanyl)piperidin-4-yl)ethyl)-1-methyl-1H-pyrazole-5-carboxamide]	> 100
Cn1c(C(=O)N[C@H]2CC[C@H](NC(=O)CCN)CC2)cc2ccccc21 [compound 245, N-((1r,4r)-4-(3-aminopropanamido)cyclohexyl)-1-methyl-1H-indole-2-carboxamide]	> 100
CC(NC(=O)Cc1cc(F)cc(F)c1)C1CCN(C(=O)[C@H](C)N)CC1 (stereo partly drawn) [compound 313, N-(1-(1-(L-alanyl)piperidin-4-yl)ethyl)-2-(3,5-difluorophenyl)acetamide]	70.7

Same assay, conditions: read-out: SMYD3 Biochem IC50 (μM)*

Structure (SMILES)	IC50 [µM]
N[C@H]1CC[C@H](NC(=O)c2ccc3c(c2)OCO3)CC1 [compound 148, N-((1r,4r)-4-aminocyclohexyl)benzo[d][1,3]dioxole-5-carboxamide]	> 100
Cn1nc(O)cc1C(=O)NC1CCNCC1 [compound 69, 3-hydroxy-1-methyl-N-(piperidin-4-yl)-1H-pyrazole-5-carboxamide]	19.7
N[C@H]1CC[C@H](NC(=O)c2cccc(CO)c2)CC1 [compound 26, N-((1r,4r)-4-aminocyclohexyl)-3-(hydroxymethyl)benzamide]	86
Cc1nc(-c2ccc(C(=O)N[C@H]3CC[C@H](NC(=O)CCN)CC3)cc2)no1 [compound 136, N-((1r,4r)-4-(3-aminopropanamido)cyclohexyl)-4-(5-methyl-1,2,4-oxadiazol-3-yl)benzamide]	> 100
CN(C)Cc1ccc(C(=O)N[C@H]2CC[C@H](N)CC2)o1 [compound 79, N-((1r,4r)-4-aminocyclohexyl)-5-((dimethylamino)methyl)furan-2-carboxamide]	38.9
CCc1ccnc(C(=O)N[C@H]2CC[C@H](N)CC2)c1 [compound 38, N-((1r,4r)-4-aminocyclohexyl)-4-ethylpicolinamide]	20.5
Cc1cc(C(=O)NC(c2ccccc2)C2CCNCC2)n(-c2ccccc2)n1 (stereo not drawn) [compound 31, 3-methyl-1-phenyl-N-(phenyl(piperidin-4-yl)methyl)-1H-pyrazole-5-carboxamide]	56.7
CCOC(=O)C(NC(=O)c1ccc2c(c1)CC(=O)N2)C1CCN(C(=O)[C@H](C)N)CC1 (stereo partly drawn) [compound 104, ethyl 2-(1-(L-alanyl)piperidin-4-yl)-2-(2-oxoindoline-5-carboxamido)acetate]	1.51
N[C@H]1CC[C@H](NC(=O)Cc2cccnc2)CC1 [compound 129, N-((1r,4r)-4-aminocyclohexyl)-2-(pyridin-3-yl)acetamide]	> 100
N[C@H]1CC[C@H](NC(=O)c2ccc3[nH]c(=O)[nH]c3c2)CC1 [compound 73, N-((1r,4r)-4-aminocyclohexyl)-2-oxo-2,3-dihydro-1H-benzo[d]imidazole-5-carboxamide]	13.7
N[C@H]1CC[C@H](NC(=O)c2ccc3c(c2)NC(=O)C3)CC1 [compound 71, N-((1r,4r)-4-aminocyclohexyl)-2-oxoindoline-6-carboxamide]	89.3
CCc1ccc(C(=O)N[C@H]2CC[C@H](N)CC2)cc1 [compound 18, N-((1r,4r)-4-aminocyclohexyl)-4-ethylbenzamide]	125
N[C@H]1CC[C@H](NC(=O)c2ccc3ccccc3n2)CC1 [compound 164, N-((1r,4r)-4-aminocyclohexyl)quinoline-2-carboxamide]	> 100
CCOC(=O)C1(CNC(=O)c2ccc3c(c2)CC(=O)N3)CCNCC1 [compound 131, ethyl 4-((2-oxoindoline-5-carboxamido)methyl)piperidine-4-carboxylate]	56.3
CCn1cnc(C(=O)N[C@H]2CC[C@H](N)CC2)c1 [compound 15, N-((1r,4r)-4-aminocyclohexyl)-1-ethyl-1H-imidazole-4-carboxamide]	56.6
NCC(=O)N[C@H]1CC[C@H](NC(=O)c2ccc3c(c2)CC(=O)N3)CC1 [compound 174, N-((1r,4r)-4-(2-aminoacetamido)cyclohexyl)-2-oxoindoline-5-carboxamide]	0.63
NCCC(=O)N[C@H]1CC[C@H](NC(=O)c2nccnc2N)CC1 [compound 152, 3-amino-N-((1r,4r)-4-(3-aminopropanamido)cyclohexyl)pyrazine-2-carboxamide]	> 100
C[C@@H](N)C(=O)N1CC[C@@H](CNC(=O)c2ccc3c(c2)CC(=O)N3)C1 [compound 133, N-(((S)-1-(D-alanyl)pyrrolidin-3-yl)methyl)-2-oxoindoline-5-carboxamide]	10.7
NCCC(=O)N[C@H]1CC[C@H](NC(=O)c2cncc(F)c2)CC1 [compound 158, N-((1r,4r)-4-(3-aminopropanamido)cyclohexyl)-5-fluoronicotinamide]	> 100
